EC50, IC50 and outcome data for 67 molecules are collected here from PubChem BioAssay AID179 (DTP/NCI, 2004).

Activity calls are given as the source filed them.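 How the source made its calls: active means compounds giving half or more protection of infected cells from virus-caused growth loss, again on retest; inactive means the rest.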

The test system of this assay is CEM cells HIV-1 protection, formazan growth assay. As to the kind of experiment: NCI AIDS Antiviral Assay. The following applies: for IC50: measured here: growth of uninfected CEM cells. The method, boiled down:
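Soluble formazan readout of cell growth; CEM cells ± HIV-1; 5 drug concs. ≥50% protection → retest; ≥50% again = moderately active; reproducible 100% = confirmed active.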

As for `O=P1(O)c2ccccc2-c2ccccc21`, the EC50 was above 200 µM and the IC50 was above 200 µM.
In the case of `COc1ccc(/C=C2\S/C(=N/Nc3nc(-c4ccccc4)cs3)NC2=O)cc1OC`, the EC50 was above 200 µM and the IC50 amounted to 31.6 µM.
As to `On1c(-c2ccccc2)c(-c2ccccc2N2CCCC2)c2ccccc21`, the outcome was inactive.
As to `O=C1c2ccccc2C(=O)C1(Br)C(Br)c1ccccc1` (stereo not drawn), the EC50 was above 200 µM and the IC50 was found to be 2.57 µM.
On to `CCCc1[nH]nc(CCC(=O)N(Cc2ccccc2)Cc2ccccc2)c1CC`, for which the EC50 is above 331 µM and the IC50 is above 331 µM.
`Cc1ccc(C2=C(c3ccccc3)C(Br)(c3ccc(C)cc3)C(c3ccccc3)=C2c2ccc(C)cc2)cc1`: the EC50 was above 2.51 µM and the IC50 was above 2.51 µM.
Take `Cn1c2ccccc2n2c3ccccc3c(=O)c(C#N)c12`: the EC50 was above 200 µM and the IC50 worked out at 2.57 µM.
Regarding `O=C(NC1CN2CCC1CC2)C(c1ccc(F)cc1)c1ccc(F)cc1` (stereo not drawn), the EC50 was above 200 µM and the IC50 came out at 5.37 µM.
For `COC1(OC)CCCc2c1no[n+]2[O-]`, the EC50 was above 200 µM and the IC50 was above 200 µM.
`CC[C@]1(Cc2ccc(OC)c(OC)c2)C=[N+]([O-])O[C@H](OC2CCCC2(c2ccccc2)c2ccccc2)[C@@H]1OC(=O)C(C)(C)C` (stereo partly drawn): the EC50 was above 200 µM and the IC50 amounted to 1.17 µM.
The matching figures for `COc1cc2c(c3c1[C@H](O)[C@H](C)[C@@H](C)O3)C=CC(C)(C)O2`: above 200 µM and 81.3 µM.
`O=C(Nc1ccc(C2=NCCN2)cc1)c1cccc(C(=O)Nc2ccc(C3=NCCN3)cc2)c1Cl`: the EC50 was 49 µM and the IC50 is 155 µM.
For `Cc1ccc(S(=O)(=O)Nc2nc3ccccc3c(=O)n2C2CCCCC2)cc1`, the EC50 is above 200 µM and the IC50 is above 200 µM.
Take `Cc1ccsc1/C=N/Nc1cc(C)c2ccccc2n1`: the EC50 was above 200 µM and the IC50 amounted to 5.37 µM.
Take `COc1ccc(-c2nc(N3CCCC3)no2)cc1`: the EC50 is above 200 µM and the IC50 came out at 195 µM.
On the same counts, the results for `COc1cc2c(c(OC)c1OC)C(=O)CC2N` (stereo not drawn) are above 200 µM and above 200 µM.
The matching figures for `N#CC(=N)c1ncn(-c2ccccc2N)c1N`: above 200 µM and above 200 µM.
On the same counts, the results for `CC(C)C1NC(=O)[C@H](C)OC(=O)[C@@H](C(C)C)NC(=O)[C@@H](C)OC(=O)C(C(C)C)NC(=O)[C@H](C)OC1=O` (stereo partly drawn) are above 251 µM and above 251 µM.
`CC1(O)CCC2(C)C(=O)C1(C)CCC21OCCO1` (stereo not drawn): the outcome was inactive.
`c1ccc(C2(c3cc4ccccc4[nH]3)OCCO2)nc1`: the EC50 was above 200 µM and the IC50 is above 200 µM.
For the molecule `COc1ccc(/C(Cl)=C/c2ccc(Cl)c(Cl)c2)cc1`, the EC50 was above 200 µM and the IC50 was above 200 µM.
Consider `CN(CCN(C)C(=O)CCn1cc(F)c(=O)[nH]c1=O)C(=O)CCn1cc(F)c(=O)[nH]c1=O`, for which the EC50 is above 57.5 µM and the IC50 is above 57.5 µM.
For `Cn1c2c(c3ccccc31)C(=O)CC2(C)C`, the EC50 was above 123 µM and the IC50 turned out to be 66.1 µM.
On the same counts, the results for `N#Cc1ccc(C2NN=CC23C(=O)c2ccccc2OC3c2ccccc2)cc1` (stereo not drawn) are above 200 µM and 64.6 µM.
The matching figures for `COc1cc(C(=O)NC2CCc3cc(OC)c(OC)c(OC)c3-c3ccc(OC)c(=O)cc32)cc(OC)c1OC` (stereo not drawn): above 0.2 µM and 0.0661 µM.
The matching figures for `Cn1cc(NC(=O)c2cc(NC(=O)c3cc(NC=O)cn3C)cn2C)cc1C(=O)NCCC(=N)N`: above 513 µM and 30.2 µM.
Consider `Cn1cc(N)cc1C(=O)Nc1cc(C(=O)Nc2ccc(S(=O)(=O)O)c3cc(S(=O)(=O)O)ccc23)n(C)c1`, for which the EC50 is 31.6 µM and the IC50 worked out at 324 µM.
On to `S=c1n(-c2ccc(Cl)cc2)c2nc3ccccc3nc(/c2=N\Nc2cc(Cl)ccc2Cl)n1-c1ccc(Br)cc1`, for which the EC50 is above 75.9 µM and the IC50 was 19.5 µM.
On the same counts, the results for `N#CSC1CCCCCCC1SC#N` (stereo not drawn) are above 200 µM and 10.5 µM.
The matching figures for `CN/N=C(\C(=O)Nc1ccc(C(F)(F)F)cc1[N+](=O)[O-])C(c1cnc2ccc([N+](=O)[O-])cc2n1)[N+](=O)[O-]` (stereo not drawn): above 251 µM and 138 µM.
Turning to `CCOC(=O)Nc1nc2cc(C(=O)OCC)n(C)c2s1`, the EC50 is above 200 µM and the IC50 is above 200 µM.
As for `N#Cc1c2n(c3c(=O)n(-c4ccccc4)c(=S)[nH]c13)CCCCC2`, the EC50 was above 151 µM and the IC50 is above 151 µM.
For the molecule `N#C/C(=C\c1ccc[nH]1)C(=O)c1ccccc1`, the EC50 was above 309 µM and the concentration for half-maximal inhibition (IC50) is above 309 µM.
Consider `CCO[C@H]1CC(C)C2[C@H](CC3(C)C4CC(OC(C)=O)C5C(C)(C)[C@@H](OC6OCC(O)C(O)C6O)CC[C@@]56C[C@@]46CC[C@]23C)O1` (stereo partly drawn), for which the EC50 was above 41.7 µM and the IC50 is above 41.7 µM.
With `c1ccc([P+](c2ccccc2)(c2ccccc2)c2ccc([P+](c3ccccc3)(c3ccccc3)c3ccccc3)cc2)cc1`, the EC50 was above 74.1 µM and the IC50 was 30.9 µM.
With `COc1cc2c(cc1OC)C(Cl)C(c1ccc(Br)cc1)=C2Cl` (stereo not drawn), the outcome was inactive.
Take `N#Cc1ccc(C(C2C(=O)NC(=O)NC2=O)C2C(=O)NC(=O)NC2=O)cc1`: the EC50 is above 70.8 µM and the IC50 was above 70.8 µM.
In the case of `O=C1NC(=O)C(=Cc2cccnc2)C(=O)N1`, the EC50 was above 200 µM and the IC50 was above 200 µM.
For `Cc1cn(C(C)OCCN(OC(=O)Oc2ccccc2)C(=O)Oc2ccccc2)c(=O)[nH]c1=O` (stereo not drawn), the EC50 was above 200 µM and the IC50 is above 200 µM.
As to `CSc1cc(-c2ccccn2)nc(-c2ccccn2)c1.CSc1cc(-c2ccccn2)nc(-c2ccccn2)c1.[O-][Cl+3]([O-])([O-])[O-].[Zn+2]`, the EC50 was above 200 µM and the IC50 was 0.0631 µM.
On the same counts, the results for `O=C1CSC(=S)N1` are above 1860 µM and 794 µM.
As to `COC(=O)C(Cc1nc2ccccc2[nH]c1=O)C(NO)C(=O)Nc1c(Cl)cc([N+](=O)[O-])cc1Cl` (stereo not drawn), the EC50 is above 51.3 µM and the IC50 is above 51.3 µM.
For `O=C1Oc2ccccc2C(=O)/C1=C/N1C(=O)/C(=C/c2ccc([N+](=O)[O-])cc2)SC1=S`, the EC50 was above 200 µM and the IC50 was found to be 1.1 µM.
The matching figures for `O=C1CN(c2cccc(C(F)(F)F)c2)C(=O)CN1NCNN1CC(=O)N(c2cccc(C(F)(F)F)c2)CC1=O`: above 200 µM and above 200 µM.
The matching figures for `Cc1ccc(C)n1-n1c2ccccc2c2ccccc21`: above 100 µM and above 100 µM.
For `O=c1c2cccnc2ncn1CCCN1CCCC1`, the outcome was inactive.
On to `Cc1nc2ccc(F)cc2c2c1CCN2c1ccc(Cl)cc1`, for which the EC50 was above 100 µM and the IC50 is 5.75 µM.
The matching figures for `NC1OC(COC(=O)c2ccccc2)C(O)C(OC(=O)c2ccccc2)C1OC(=O)c1ccccc1` (stereo not drawn): above 200 µM and 0.933 µM.
The matching figures for `O=C(Nc1ccc2c(O)c(N=Nc3ccc(S(=O)(=O)O)cc3)c(S(=O)(=O)O)cc2c1)Nc1ccc2c(O)c(N=Nc3ccc(S(=O)(=O)O)cc3)c(S(=O)(=O)O)cc2c1`: 8.91 µM and 110 µM.
The matching figures for `C/C=C1\CC(C(=O)OCC)CCCCCCCCCCC1=O` (stereo not drawn): above 200 µM and 8.51 µM.
Take `Nc1ncnc2c1ncn2C1C=CC(=O)CC1` (stereo not drawn): the EC50 was above 31.6 µM and the IC50 worked out at 5.62 µM.
On the same counts, the results for `CC(C)(C)C(=O)OCC1CCC(n2cnc3c(=O)[nH]c(N)nc32)O1` (stereo not drawn) are above 15.5 µM and above 15.5 µM.
In the case of `O=[N+]([O-])c1ccc2[nH]c(=S)[nH]c(=S)c2c1`, the EC50 is above 200 µM.
As to `NC1=NS(=O)(=O)Nc2nc(-c3cccs3)[nH]c21`, the EC50 was above 200 µM and the IC50 was above 200 µM.
Take `COC(=O)N1C2C(C[C@@]1(C)C(=O)OC)c1ccccc1N2S(=O)(=O)c1ccccc1` (stereo partly drawn): the EC50 is above 200 µM and the IC50 is above 200 µM.
With `COc1cnc([C@H]2CCC3[C@@H]4CC=C5C[C@@H](OC(=O)CCC(=O)O)CC[C@]5(C)C4CC[C@@]32C)s1` (stereo partly drawn), the EC50 was above 51.3 µM and the IC50 was found to be 29.5 µM.
On the same counts, the results for `O=c1[nH]c(=S)c2cncnc2n1C1OC(CO)C(O)C1O` (stereo not drawn) are above 200 µM and above 200 µM.
As to `N#Cc1c(-c2ccc(Cl)cc2)c(-c2ccc(Cl)cc2)nn(CCOC(=O)CCC(=O)O)c1=O`, the EC50 is above 513 µM and the concentration for half-maximal inhibition (IC50) was 0.468 µM.
On the same counts, the results for `N#CC(C(=O)/C(=N/NC(=O)c1ccccc1O)C(C#N)c1ccc(Br)cc1)c1ccc(Br)cc1` (stereo not drawn) are above 23.4 µM and above 23.4 µM.
The matching figures for `CCCCCCCCCCCCCCCCCCCCOC1OC(CO)C(O)C(O)C1O` (stereo not drawn): above 3.63 µM and above 3.63 µM.
On the same counts, the results for `O=c1[nH]c(=O)n(C2OC(CO)C(O)C2O)c2ncc(-c3ccc(-c4ccccc4)cc3)nc12` (stereo not drawn) are above 20 µM and above 20 µM.
Regarding `CCN1C[C@]2(COC)[C@H](O)C[C@H](OC)[C@]34C1[C@H]([C@H](OC)[C@H]23)[C@]1(OC(C)=O)[C@H]2[C@@H](OC(=O)c3ccccc3)[C@](O)(C[C@H]24)[C@@H](OC)[C@@H]1O`, the outcome was inactive.
For the molecule `CC(=O)NNc1nc(C)c(C(/C=C/c2ccc([N+](=O)[O-])cc2)=N/NC(N)=S)s1`, the EC50 is above 69.2 µM and the IC50 is above 69.2 µM.
Regarding `O=c1oc2ccccc2c(O)c1[N+](=O)[O-]`, the EC50 is above 200 µM and the IC50 was above 200 µM.
Consider `CCOC(=O)c1[nH]c(CN(C)Cc2[nH]c(C(=O)OCC)c(C)c2C(=O)OCc2ccccc2)c(C(=O)OCc2ccccc2)c1C`, for which the EC50 was above 6.03 µM and the IC50 is above 6.03 µM.
Turning to `CCC(=O)N/N=C(\C=C\c1cccc(O)c1)c1sc(Nc2ccc(C)cc2[N+](=O)[O-])nc1C`, the EC50 was above 77.6 µM and the IC50 is above 77.6 µM.
As for `Cc1ccc2c(c1)[nH]c(=S)n2C=C1C(=O)CC(C)(C)CC1=O`, the EC50 is above 200 µM and the IC50 was above 200 µM.
